Assay results published in publication PMC5218480 (PLoS ONE, 2017).

Test system: MV-4-11 cells
Assay: Gene expression microarray analysis (Affymetrix PrimeView) and GSEA
Type: cell-based, human
Parameters: RFU PODN (11730768_x_at) / Fold change /veh PODN (11730768_x_at) / RFU LINC00158 (11744669_a_at) / Fold change /veh LINC00158 (11744669_a_at) / RFU DUSP10 (11751237_a_at) / Fold change /veh DUSP10 (11751237_a_at) / RFU ID3 (11757404_x_at) / Fold change /veh ID3 (11757404_x_at) / RFU PLEKHG5 (11737974_s_at) / Fold change /veh PLEKHG5 (11737974_s_at) / RFU LRRC4B (11730491_at) / Fold change /veh LRRC4B (11730491_at) / RFU GIMAP4 (11747438_a_at) / Fold change /veh GIMAP4 (11747438_a_at) / RFU KRT8 (11758183_x_at) / Fold change /veh KRT8 (11758183_x_at) / RFU CNN1 (11734310_a_at) / Fold change /veh CNN1 (11734310_a_at) / RFU VPS37D (11726825_at) / Fold change /veh VPS37D (11726825_at) / RFU C10orf10 (11716522_x_at) / Fold change /veh C10orf10 (11716522_x_at) / RFU KIR2DL2 /// KIR2DL4 /// KIR2DL5A /// KIR2DL5B /// KIR2DS1 /// KIR2DS2 /// KIR2DS3 /// KIR2DS4 /// KIR3DL3 /// KIR3DL3 /// KIR3DS1 (11738374_at) / Fold change /veh KIR2DL2 /// KIR2DL4 /// KIR2DL5A /// KIR2DL5B /// KIR2DS1 /// KIR2DS2 /// KIR2DS3 /// KIR2DS4 /// KIR3DL3 /// KIR3DL3 /// KIR3DS1 (11738374_at) / RFU C1QL1 (11718748_at) / Fold change /veh C1QL1 (11718748_at) / RFU TMPRSS4 (11747572_a_at) / Fold change /veh TMPRSS4 (11747572_a_at) / RFU HAMP (11756126_x_at) / Fold change /veh HAMP (11756126_x_at) / RFU RNFT2 (11725882_a_at) / Fold change /veh RNFT2 (11725882_a_at) / RFU NR4A2 (11747474_a_at) / Fold change /veh NR4A2 (11747474_a_at) / RFU ABCC12 (11746883_a_at) / Fold change /veh ABCC12 (11746883_a_at) / RFU TMEM136 (11760407_x_at) / Fold change /veh TMEM136 (11760407_x_at) / RFU CLDN22 /// WWC2 (11732394_at) / Fold change /veh CLDN22 /// WWC2 (11732394_at) / RFU HLA-DPB1 (11760878_x_at) / Fold change /veh HLA-DPB1 (11760878_x_at) / RFU SPINT1 (11716480_a_at) / Fold change /veh SPINT1 (11716480_a_at) / RFU GAP43 (11754022_s_at) / Fold change /veh GAP43 (11754022_s_at) / RFU A4GNT (11735810_at) / Fold change /veh A4GNT (11735810_at) / RFU PRB3 (11715151_x_at) / Fold change /veh PRB3 (11715151_x_at) / RFU TUBB4B (11761932_at) / Fold change /veh TUBB4B (11761932_at) / RFU CAPN14 (11732068_a_at) / Fold change /veh CAPN14 (11732068_a_at) / RFU TMCC2 (11721928_a_at) / Fold change /veh TMCC2 (11721928_a_at) / RFU IRGQ (11745062_a_at) / Fold change /veh IRGQ (11745062_a_at) / RFU FAM174B (11720279_a_at) / Fold change /veh FAM174B (11720279_a_at) / RFU TMPRSS4 (11748680_a_at) / Fold change /veh TMPRSS4 (11748680_a_at) / RFU FAM212B (11763350_a_at) / Fold change /veh FAM212B (11763350_a_at) / RFU PLEKHG5 (11743358_a_at) / Fold change /veh PLEKHG5 (11743358_a_at) / RFU ZSCAN30 (11745921_a_at) / Fold change /veh ZSCAN30 (11745921_a_at) / RFU CMKLR1 (11741424_a_at) / Fold change /veh CMKLR1 (11741424_a_at) / RFU LOC101060620 /// MAPK8IP1 (11723275_at) / Fold change /veh LOC101060620 /// MAPK8IP1 (11723275_at) / RFU SPTSSB (11747773_x_at) / Fold change /veh SPTSSB (11747773_x_at) / RFU PRSS12 (11739890_at) / Fold change /veh PRSS12 (11739890_at) / RFU BIN1 (11741810_x_at) / Fold change /veh BIN1 (11741810_x_at) / RFU WNT11 (11732464_a_at) / Fold change /veh WNT11 (11732464_a_at) / RFU C10orf10 (11716521_a_at) / Fold change /veh C10orf10 (11716521_a_at) / RFU C5orf56 (11738089_at) / Fold change /veh C5orf56 (11738089_at) / RFU CYB561 (11721691_x_at) / Fold change /veh CYB561 (11721691_x_at) / RFU ANKRD19P (11752326_a_at) / Fold change /veh ANKRD19P (11752326_a_at) / RFU OR2T12 /// OR2T33 /// OR2T8 (11738714_s_at) / Fold change /veh OR2T12 /// OR2T33 /// OR2T8 (11738714_s_at) / RFU VCAN (11748164_a_at) / Fold change /veh VCAN (11748164_a_at) / RFU JSRP1 (11732532_at) / Fold change /veh JSRP1 (11732532_at) / RFU KRTAP10-11 (11738290_x_at) / Fold change /veh KRTAP10-11 (11738290_x_at) / RFU MYO3A (11730013_a_at) / Fold change /veh MYO3A (11730013_a_at) / RFU EBF3 (11725865_a_at) / Fold change /veh EBF3 (11725865_a_at) / RFU CAMK2N1 (11719241_x_at) / Fold change /veh CAMK2N1 (11719241_x_at) / RFU C5orf56 (11738088_a_at) / Fold change /veh C5orf56 (11738088_a_at) / RFU OLFML3 (11715873_a_at) / Fold change /veh OLFML3 (11715873_a_at) / RFU LOC100653217 /// NTM (11731650_a_at) / Fold change /veh LOC100653217 /// NTM (11731650_a_at) / RFU MAPK11 (11762145_a_at) / Fold change /veh MAPK11 (11762145_a_at) / RFU FIZ1 (11724087_x_at) / Fold change /veh FIZ1 (11724087_x_at) / RFU OASL (11726364_x_at) / Fold change /veh OASL (11726364_x_at) / RFU SOX15 (11748057_x_at) / Fold change /veh SOX15 (11748057_x_at) / RFU CD79A (11719716_a_at) / Fold change /veh CD79A (11719716_a_at) / RFU HIST1H1D (11736915_at) / Fold change /veh HIST1H1D (11736915_at) / RFU CASKIN2 (11723855_a_at) / Fold change /veh CASKIN2 (11723855_a_at) / RFU LOC730098 (11760151_x_at) / Fold change /veh LOC730098 (11760151_x_at) / RFU OR4N2 (11742367_at) / Fold change /veh OR4N2 (11742367_at) / RFU PRRT2 (11749266_a_at) / Fold change /veh PRRT2 (11749266_a_at) / RFU SNX32 (11753110_a_at) / Fold change /veh SNX32 (11753110_a_at) / RFU CDHR5 (11726645_a_at) / Fold change /veh CDHR5 (11726645_a_at) / RFU RCAN1 (11760418_a_at) / Fold change /veh RCAN1 (11760418_a_at) / RFU FAM167A (11723789_a_at) / Fold change /veh FAM167A (11723789_a_at) / RFU FAM26E (11764081_at) / Fold change /veh FAM26E (11764081_at) / RFU ISYNA1 (11749810_s_at) / Fold change /veh ISYNA1 (11749810_s_at) / RFU ACY1 (11761880_at) / Fold change /veh ACY1 (11761880_at) / RFU 11764098_at / Fold change /veh 11764098_at / RFU SAMD14 (11745864_x_at) / Fold change /veh SAMD14 (11745864_x_at) / RFU NPB (11741838_a_at) / Fold change /veh NPB (11741838_a_at) / RFU TMPRSS6 (11731388_a_at) / Fold change /veh TMPRSS6 (11731388_a_at) / RFU KRTAP10-2 (11738614_at) / Fold change /veh KRTAP10-2 (11738614_at) / RFU ARHGAP8 /// PRR5-ARHGAP8 (11727945_x_at) / Fold change /veh ARHGAP8 /// PRR5-ARHGAP8 (11727945_x_at) / RFU KRTAP5-7 /// NADSYN1 (11734609_at) / Fold change /veh KRTAP5-7 /// NADSYN1 (11734609_at) / RFU RASL12 (11751679_a_at) / Fold change /veh RASL12 (11751679_a_at) / RFU CDKN2B (11736163_a_at) / Fold change /veh CDKN2B (11736163_a_at) / RFU PRF1 (11729649_at) / Fold change /veh PRF1 (11729649_at) / RFU, ZNF638 /// ZNF638-IT1 / Fold change vs veh, ZNF638 /// ZNF638-IT1 / RFU, PANK3 / Fold change vs veh, PANK3 / RFU, SH3YL1 / Fold change vs veh, SH3YL1 / RFU, ZEB2 / Fold change vs veh, ZEB2 / RFU, NRIP1 / Fold change vs veh, NRIP1 / RFU, PTTG1IP / Fold change vs veh, PTTG1IP / RFU, CAPN2 / Fold change vs veh, CAPN2 / RFU, MED14 / Fold change vs veh, MED14 / RFU, SNORA58 / Fold change vs veh, SNORA58 / RFU, C1orf63 / Fold change vs veh, C1orf63 / RFU, LRRFIP1 / Fold change vs veh, LRRFIP1 / RFU, NDUFAF7 / Fold change vs veh, NDUFAF7 / RFU, SLC12A2 / Fold change vs veh, SLC12A2 / RFU, IBTK / Fold change vs veh, IBTK / RFU, ESF1 / Fold change vs veh, ESF1 / Fold change vs veh, TMEM50B / RFU, TAOK1 / Fold change vs veh, TAOK1 / RFU, ACBD3 / Fold change vs veh, ACBD3 / RFU, TMA16 / Fold change vs veh, TMA16 / RFU, RWDD3 / Fold change vs veh, RWDD3 / RFU, BCAT1 / Fold change vs veh, BCAT1 / RFU, EDEM3 / Fold change vs veh, EDEM3 / RFU, TMEM33 / Fold change vs veh, TMEM33 / RFU, WDR75 / Fold change vs veh, WDR75 / RFU, AHCTF1 / Fold change vs veh, AHCTF1 / RFU, TFRC / Fold change vs veh, TFRC / RFU, ZDHHC17 / Fold change vs veh, ZDHHC17 / RFU, NOM1 / Fold change vs veh, NOM1 / RFU, ARL8B / Fold change vs veh, ARL8B / RFU, ZBTB11 / Fold change vs veh, ZBTB11 / RFU, TAMM41 / Fold change vs veh, TAMM41 / RFU, KIAA1704 /// LOC100996395 / Fold change vs veh, KIAA1704 /// LOC100996395 / RFU, ING1 / Fold change vs veh, ING1 / RFU, TRMT61B / Fold change vs veh, TRMT61B / RFU, FUBP3 / Fold change vs veh, FUBP3 / RFU, TP53 / Fold change vs veh, TP53 / RFU, TNKS2 / Fold change vs veh, TNKS2 / RFU, ZFP14 / Fold change vs veh, ZFP14 / RFU, ACTR2 / Fold change vs veh, ACTR2 / RFU, PPP3R1 / Fold change vs veh, PPP3R1 / RFU, PIK3R1 / Fold change vs veh, PIK3R1 / RFU, HNRNPA1 / Fold change vs veh, HNRNPA1 / RFU, RNF170 / Fold change vs veh, RNF170 / RFU, ZNF28 / Fold change vs veh, ZNF28 / RFU, RNGTT / Fold change vs veh, RNGTT / RFU, OGT / Fold change vs veh, OGT / RFU, BRD1 / Fold change vs veh, BRD1 / RFU, MARS / Fold change vs veh, MARS / RFU, ZNF655 / Fold change vs veh, ZNF655 / RFU, FAHD1 / Fold change vs veh, FAHD1 / RFU, BDP1 / Fold change vs veh, BDP1 / RFU, LRRCC1 / Fold change vs veh, LRRCC1 / RFU, ARID1A / Fold change vs veh, ARID1A / RFU, ZNF146 / Fold change vs veh, ZNF146 / RFU, ZNF330 / Fold change vs veh, ZNF330 / RFU, GPN3 / Fold change vs veh, GPN3 / RFU, C9orf123 / Fold change vs veh, C9orf123 / RFU, N4BP2L2 / Fold change vs veh, N4BP2L2 / RFU, ARFIP1 / Fold change vs veh, ARFIP1 / RFU, FAM179B / Fold change vs veh, FAM179B / RFU, BCL10 / Fold change vs veh, BCL10 / RFU, UHRF1BP1L / Fold change vs veh, UHRF1BP1L / RFU, BET1 / Fold change vs veh, BET1 / RFU, CNOT2 / Fold change vs veh, CNOT2 / RFU, ZNF268 / Fold change vs veh, ZNF268 / Fold change vs veh, ZNF507 / RFU, DGCR2 / Fold change vs veh, DGCR2 / RFU, WDSUB1 / Fold change vs veh, WDSUB1 / Fold change vs veh, HSP90B1 /// MIR3652 / RFU, ADSS / Fold change vs veh, ADSS / RFU, GK / Fold change vs veh, GK / RFU, ZNF148 / Fold change vs veh, ZNF148 / RFU, TAF9 / Fold change vs veh, TAF9 / RFU, SLC1A5 / Fold change vs veh, SLC1A5 / RFU, SLMO2 / Fold change vs veh, SLMO2 / RFU, ABCC4 / Fold change vs veh, ABCC4 / RFU, LOC101060439 /// RAP1B / Fold change vs veh, LOC101060439 /// RAP1B / RFU, RFX7 / Fold change vs veh, RFX7 / RFU, GTPBP10 / Fold change vs veh, GTPBP10 / RFU, CNEP1R1 / Fold change vs veh, CNEP1R1 / RFU, BIVM-ERCC5 /// ERCC5 / Fold change vs veh, BIVM-ERCC5 /// ERCC5 / RFU, ILF3 / Fold change vs veh, ILF3 / RFU 11762660_at / Fold change /veh 11762660_at / RFU VCAN (11757783_s_at) / Fold change /veh VCAN (11757783_s_at) / RFU DDX43 (11728927_at) / Fold change /veh DDX43 (11728927_at) / RFU KRT8 (11758188_x_at) / Fold change /veh KRT8 (11758188_x_at) / RFU NKD1 (11759106_at) / Fold change /veh NKD1 (11759106_at) / RFU SRD5A1 (11742802_a_at) / Fold change /veh SRD5A1 (11742802_a_at) / RFU TPSAB1 /// TPSB2 (11721975_s_at) / Fold change /veh TPSAB1 /// TPSB2 (11721975_s_at) / RFU GSTM3 (11746129_a_at) / Fold change /veh GSTM3 (11746129_a_at) / RFU IL23R (11737362_x_at) / Fold change /veh IL23R (11737362_x_at) / RFU TMEM51 (11727254_a_at) / Fold change /veh TMEM51 (11727254_a_at) / RFU PIWIL2 (11732686_x_at) / Fold change /veh PIWIL2 (11732686_x_at) / RFU ORM1 (11744905_x_at) / Fold change /veh ORM1 (11744905_x_at) / RFU CCDC152 (11743942_at) / Fold change /veh CCDC152 (11743942_at) / RFU ECM1 (11717891_a_at) / Fold change /veh ECM1 (11717891_a_at) / RFU IL23R (11748794_a_at) / Fold change /veh IL23R (11748794_a_at) / RFU TNFAIP8L3 (11732012_x_at) / Fold change /veh TNFAIP8L3 (11732012_x_at) / RFU MBOAT4 (11741988_at) / Fold change /veh MBOAT4 (11741988_at) / RFU 11764193_at / Fold change /veh 11764193_at / RFU TMEM53 (11763286_at) / Fold change /veh TMEM53 (11763286_at) / RFU MAGEB2 (11727129_at) / Fold change /veh MAGEB2 (11727129_at) / RFU TMEM200A (11744735_a_at) / Fold change /veh TMEM200A (11744735_a_at) / RFU CCDC152 (11751479_a_at) / Fold change /veh CCDC152 (11751479_a_at) / RFU FAM211A (11726209_a_at) / Fold change /veh FAM211A (11726209_a_at) / RFU RGS16 (11746705_a_at) / Fold change /veh RGS16 (11746705_a_at) / RFU VCAN (11755009_s_at) / Fold change /veh VCAN (11755009_s_at) / RFU RHOB (11743442_s_at) / Fold change /veh RHOB (11743442_s_at) / RFU RGS16 (11720943_a_at) / Fold change /veh RGS16 (11720943_a_at) / RFU RGS16 (11720944_at) / Fold change /veh RGS16 (11720944_at) / RFU, VPS4B / Fold change vs veh, VPS4B / RFU, CREB1 / Fold change vs veh, CREB1 / RFU, DNAJC13 / Fold change vs veh, DNAJC13 / RFU, GNAQ / Fold change vs veh, GNAQ / RFU, CDK5R1 / Fold change vs veh, CDK5R1 / RFU, ZRANB3 / Fold change vs veh, ZRANB3 / RFU, CUL4A / Fold change vs veh, CUL4A / RFU, CCNY / Fold change vs veh, CCNY / RFU, UFL1 / Fold change vs veh, UFL1 / RFU, COG3 / Fold change vs veh, COG3 / RFU, DIAPH2 / Fold change vs veh, DIAPH2 / RFU, SKA2 / Fold change vs veh, SKA2 / RFU, AFF3 / Fold change vs veh, AFF3 / RFU, LMF1 / Fold change vs veh, LMF1 / RFU, IPO11 / Fold change vs veh, IPO11 / RFU, DFFB / Fold change vs veh, DFFB / RFU, FOXP1 / Fold change vs veh, FOXP1 / RFU, CARD8 / Fold change vs veh, CARD8 / RFU, STRN3 / Fold change vs veh, STRN3 / RFU, ADK / Fold change vs veh, ADK / RFU, RASSF2 / Fold change vs veh, RASSF2 / RFU, WIPF1 / Fold change vs veh, WIPF1 / RFU, LARP1B / Fold change vs veh, LARP1B / RFU, RASA1 / Fold change vs veh, RASA1 / RFU, RB1 / Fold change vs veh, RB1 / RFU, PPFIA1 / Fold change vs veh, PPFIA1 / RFU, MAT2A / Fold change vs veh, MAT2A / RFU, CCT5 / Fold change vs veh, CCT5 / RFU, WDR92 / Fold change vs veh, WDR92 / RFU, CUX1 / Fold change vs veh, CUX1 / RFU, TTC7A / Fold change vs veh, TTC7A / RFU, TMEM135 / Fold change vs veh, TMEM135 / RFU, DEPTOR / Fold change vs veh, DEPTOR / RFU, CPM / Fold change vs veh, CPM / RFU, DNAJB6 / Fold change vs veh, DNAJB6 / RFU, CACNA2D3 / Fold change vs veh, CACNA2D3 / RFU, DTX4 / Fold change vs veh, DTX4 / RFU, TFCP2 / Fold change vs veh, TFCP2 / RFU, GMCL1 /// GMCL1P1 / Fold change vs veh, GMCL1 /// GMCL1P1 / RFU, AEBP2 / Fold change vs veh, AEBP2 / RFU, SNHG1 /// SNORD22 /// SNORD25 /// SNORD26 /// SNORD27 /// SNORD28 /// SNORD29 /// SNORD31 / Fold change vs veh, SNHG1 /// SNORD22 /// SNORD25 /// SNORD26 /// SNORD27 /// SNORD28 /// SNORD29 /// SNORD31 / Fold change (Aza/veh), C12orf56 (ProbeSet 11735607_a_at) / Fold change (ACY-1035/veh), C12orf56 (ProbeSet 11735607_a_at) / Fold change (Aza/veh), FGFR1OP (ProbeSet 11751329_s_at) / Fold change (ACY-1035/veh), FGFR1OP (ProbeSet 11751329_s_at) / Fold change (Aza/veh), VPS36 (ProbeSet 11739960_a_at) / Fold change (ACY-1035/veh), VPS36 (ProbeSet 11739960_a_at) / RFU SYPL1 (11715823_x_at) / Fold change /veh SYPL1 (11715823_x_at) / RFU IGFBP7 (11715501_s_at) / Fold change /veh IGFBP7 (11715501_s_at) / RFU REEP3 (11722064_at) / Fold change /veh REEP3 (11722064_at) / RFU IGLL1 (11728026_x_at) / Fold change /veh IGLL1 (11728026_x_at): dose or concentration left out as unconfirmed
Conditions: ProbeSet 11755070_a_at; LIST D

Nc1ccc(-c2cccs2)cc1NC(=O)c1ccc2c(c1)cc(C1CC1)n2CCN1CCOCC1 [ACY-1035]
RFU, CARD8: 173.18 RFU
